12 molecules from patent US20190048016A1, “SUBSTITUTED BRIDGED UREA ANALOGS AS SIRTUIN MODULATORS” (GlaxoSmithKline Intellectual Property(No.2)Limited, priority 2014, published 2019) can be followed below.

The target in this test is T1, SIRT1 (Homo sapiens, UniProt Q96EB6).
T1 sequence (Q96EB6 1-747): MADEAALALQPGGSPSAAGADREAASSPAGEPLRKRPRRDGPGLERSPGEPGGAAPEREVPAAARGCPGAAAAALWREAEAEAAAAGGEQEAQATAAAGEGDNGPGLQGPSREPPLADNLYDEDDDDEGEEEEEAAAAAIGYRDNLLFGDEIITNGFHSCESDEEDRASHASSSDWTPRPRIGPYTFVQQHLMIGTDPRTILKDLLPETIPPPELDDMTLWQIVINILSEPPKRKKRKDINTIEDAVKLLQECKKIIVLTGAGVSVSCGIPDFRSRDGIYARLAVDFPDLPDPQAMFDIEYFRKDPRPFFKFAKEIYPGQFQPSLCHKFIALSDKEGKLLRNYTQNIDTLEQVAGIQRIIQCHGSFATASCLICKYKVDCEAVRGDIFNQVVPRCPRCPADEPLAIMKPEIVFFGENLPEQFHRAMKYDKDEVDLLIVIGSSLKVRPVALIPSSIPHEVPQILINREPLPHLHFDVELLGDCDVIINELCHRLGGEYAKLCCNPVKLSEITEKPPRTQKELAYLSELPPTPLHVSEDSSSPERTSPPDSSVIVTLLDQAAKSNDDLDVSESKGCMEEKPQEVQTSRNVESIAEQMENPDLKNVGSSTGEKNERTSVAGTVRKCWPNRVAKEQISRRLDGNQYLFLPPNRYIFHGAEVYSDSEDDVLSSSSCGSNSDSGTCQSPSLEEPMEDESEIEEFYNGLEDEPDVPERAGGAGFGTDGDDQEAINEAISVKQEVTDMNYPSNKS
Put plainly: Trp mass spectrometry assay of SIRT1 activation (deacetylation of Ac-R-H-K-K(Ac)-W-NH2 peptide, OAADPR formation). The test is classed as biochemical. The conditions noted are these: Trp peptide 0.5 μM, 120 μM βNAD+, 10 nM SIRT1, 25 min, 25° C.; for Emax: 25 min, read-out: TRP MAX RESP (percent maximum fold activation relative to control = 100%). Summed up:
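10 nM His-tagged SIRT1 (E. coli expressed) with 0.5 μM Ac-RHKK(Ac)W-NH2 and 120 μM βNAD+, 25 min at 25° C, HEPES pH 7.5, […]; formic acid stop. OAADPR or deacetylated peptide measured by mass spectrometry; EC1.5 = concentration giving 150% activity versus DMSO control; maximum activation also reported.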

Where only a bound is given, the exact number is not on record here.

`O=C(Nc1ccccn1)N1c2nc(N3CCCC(C(F)(F)F)C3)ccc2N2CCC[C@H]1C2` (single isomer, unassigned) [Example 23]: the “TRP Activity (EC1.5, concentration of compound required to increase SIRT1 activity by 50% over control)” value is reported as “B (EC1.5 1-25 μM)” and the “TRP MAX RESP (percent maximum fold activation relative to control = 100%)” value is on record as “A (Fold activation≥150%)”.

Take `O=C(Nc1cncc(OC[C@@H](O)CO)c1)N1c2nc(-c3cccc(C(F)(F)F)c3)c(Cl)cc2N2CCC[C@H]1C2` [Example 80, (9S)-3-chloro-N-(5-((S)-2,3-dihydroxypropoxy)pyridin-3-yl)-2-(3-(trifluoromethyl)phenyl)-8,9-dihydro-6H-5,9-methanopyrido[2,3-b][1,4]diazocine-10(7H)-carboxamide]: the Emax is no less than 150% and the “TRP Activity (EC1.5, concentration of compound required to increase SIRT1 activity by 50% over control)” value was “A (EC1.5<1 μM)”.

`O=C(Nc1ccnc(OC[C@H](O)CO)c1)N1c2nc(-c3cccc(C(F)(F)F)c3)c(Cl)cc2N2CCC[C@H]1C2` [Example 85, (9S)-3-chloro-N-(2-((R)-2,3-dihydroxypropoxy)pyridin-4-yl)-2-(3-(trifluoromethyl)phenyl)-8,9-dihydro-6H-5,9-methanopyrido[2,3-b][1,4]diazocine-10(7H)-carboxamide]: the Emax was no less than 150% and the “TRP Activity (EC1.5, concentration of compound required to increase SIRT1 activity by 50% over control)” value is “A (EC1.5<1 μM)”.

Regarding `O=C(Nc1cncnc1)N1c2nc(-c3ccnc(C(F)(F)F)c3)ccc2N2CCC[C@H]1C2` [Example 10, (9S)-N-(pyrimidin-5-yl)-2-(2-(trifluoromethyl)pyridin-4-yl)-8,9-dihydro-6H-5,9-methanopyrido[2,3-b][1,4]diazocine-10(7H)-carboxamide], the Emax was no less than 150% and the “TRP Activity (EC1.5, concentration of compound required to increase SIRT1 activity by 50% over control)” value was “A (EC1.5<1 μM)”.

`Cc1ccc2c(NC(=O)N3c4nc(C(=O)NC(CO)C(F)(F)F)ccc4N4CCC[C@H]3C4)n[nH]c2n1` (single isomer, unassigned) [Example 46]: the “TRP Activity (EC1.5, concentration of compound required to increase SIRT1 activity by 50% over control)” value is given as “A (EC1.5<1 μM)” and the “TRP MAX RESP (percent maximum fold activation relative to control = 100%)” value is “A (Fold activation≥150%)”.

For the molecule `O=C(Nc1ncccn1)N1c2nc(N3CCCC(C(F)(F)F)C3)ccc2N2CCC[C@H]1C2` (single isomer, unassigned) [Example 18], the Emax was no less than 150% and the “TRP Activity (EC1.5, concentration of compound required to increase SIRT1 activity by 50% over control)” value is reported as “A (EC1.5<1 μM)”.

For the molecule `O=C(Nc1ncc(OC[C@@H](O)CO)cn1)N1c2nc(-c3cccc(C(F)(F)F)c3)c(Cl)cc2N2CCC[C@H]1C2` [Example 92, (9S)-3-chloro-N-(5-((S)-2,3-dihydroxypropoxy)pyrimidin-2-yl)-2-(3-(trifluoromethyl)phenyl)-8,9-dihydro-6H-5,9-methanopyrido[2,3-b][1,4]diazocine-10(7H)-carboxamide], the Emax is no less than 150% and the “TRP Activity (EC1.5, concentration of compound required to increase SIRT1 activity by 50% over control)” value was “A (EC1.5<1 μM)”.

As to `O=C(Nc1ccc(F)cn1)N1c2nc(N3CCCC(C(F)(F)F)C3)ccc2N2CCC[C@H]1C2` (single isomer, unassigned) [Example 24], the Emax is no less than 150% and the “TRP Activity (EC1.5, concentration of compound required to increase SIRT1 activity by 50% over control)” value was “A (EC1.5<1 μM)”.

Turning to `Cc1cc(-c2ccc3c(n2)N(C(=O)Nc2cncnc2)[C@H]2CCCN3C2)ccn1` [Example 16, (9S)-2-(2-methylpyridin-4-yl)-N-(pyrimidin-5-yl)-8,9-dihydro-6H-5,9-methanopyrido[2,3-b][1,4]diazocine-10(7H)-carboxamide], the Emax was no less than 150% and the “TRP Activity (EC1.5, concentration of compound required to increase SIRT1 activity by 50% over control)” value is reported as “B (EC1.5 1-25 μM)”.

As to `C[C@@H](NC(=O)c1ccc2c(n1)N(C(=O)Nc1ccon1)[C@H]1CCCN2C1)C(F)(F)F` [Example 40, (9S)-N10-(isoxazol-3-yl)-N2-((R)-1,1,1-trifluoropropan-2-yl)-8,9-dihydro-6H-5,9-methanopyrido[2,3-b][1,4]diazocine-2,10(7H)-dicarboxamide], the Emax is no less than 150% and the “TRP Activity (EC1.5, concentration of compound required to increase SIRT1 activity by 50% over control)” value is on record as “A (EC1.5<1 μM)”.

As for `O=C(Nc1cccnc1)c1cc2c(nc1N1CCCC(C(F)(F)F)C1)N[C@H]1CCCN2C1` (single isomer, unassigned) [Example 60], the Emax is no more than 150%.

With `Cc1cc(-c2ccc3c(n2)N(C(=O)Nc2cccnn2)[C@H]2CCCN3C2)ccn1` [Example 14, (9S)-2-(2-methylpyridin-4-yl)-N-(pyridazin-3-yl)-8,9-dihydro-6H-5,9-methanopyrido[2,3-b][1,4]diazocine-10(7H)-carboxamide], the Emax was no less than 150% and the “TRP Activity (EC1.5, concentration of compound required to increase SIRT1 activity by 50% over control)” value is listed as “A (EC1.5<1 μM)”.
